Each structure is given as a SMILES string. Numbers after ± are expanded uncertainties.

16 compounds from the NIST ThermoML archive (doi:10.1016/j.jct.2013.01.005) can be followed below.

The data set can be described thus: activity coefficient (dimensionless); of the first substance listed, at infinite dilution; xn = mol fraction of the nth substance listed. To be noted: 101 kPa, Liquid, Chromatography, x1 = 0.

As to `C1=CCCCC1` [cyclohexene] + CCCCC[N+]1(C)CCCCC1.O=S(=O)([N-]S(=O)(=O)C(F)(F)F)C(F)(F)F, the activity coefficient by setting is: (308.15 K) 3.73 ± 0.25; (318.15 K) 3.63 ± 0.25; (328.15 K) 3.53 ± 0.24; (338.15 K) 3.39 ± 0.23; (348.15 K) 3.3 ± 0.22; (358.15 K) 3.21 ± 0.22.

For `C1CCCCCCC1` [cyclooctane] + CCCCCC[N+]1(C)CCCCC1.O=S(=O)([N-]S(=O)(=O)C(F)(F)F)C(F)(F)F, the activity coefficient was 7.57 ± 0.52 (308.15 K); 7.36 ± 0.5 (318.15 K); 7.15 ± 0.49 (328.15 K); 6.87 ± 0.47 (338.15 K); 6.75 ± 0.46 (348.15 K); 6.53 ± 0.45 (358.15 K).

For the compound `C1CCCCCCC1` [cyclooctane] + CCCCC[N+]1(C)CCCCC1.O=S(=O)([N-]S(=O)(=O)C(F)(F)F)C(F)(F)F, the activity coefficient was determined as 10.1 ± 0.7 (308.15 K); 9.58 ± 0.65 (318.15 K); 9.06 ± 0.62 (328.15 K); 8.6 ± 0.59 (338.15 K); 8.24 ± 0.56 (348.15 K); 7.8 ± 0.53 (358.15 K).

On to `C1CCCC1` [cyclopentane] + CCCCCC[N+]1(C)CCCCC1.O=S(=O)([N-]S(=O)(=O)C(F)(F)F)C(F)(F)F, for which the activity coefficient (308.15 K) was 3.72 ± 0.25; the activity coefficient (318.15 K) was 3.59 ± 0.24; the activity coefficient (328.15 K) worked out at 3.43 ± 0.23; the activity coefficient (338.15 K) was found to be 3.34 ± 0.23; the activity coefficient (348.15 K) was found to be 3.24 ± 0.22; the activity coefficient (358.15 K) was 3.12 ± 0.21.

Turning to `C1CCCC1` [cyclopentane] + CCCCC[N+]1(C)CCCCC1.O=S(=O)([N-]S(=O)(=O)C(F)(F)F)C(F)(F)F, the activity coefficient was 4.72 ± 0.32 (308.15 K); 4.5 ± 0.31 (318.15 K); 4.24 ± 0.29 (328.15 K); 3.98 ± 0.27 (338.15 K); 3.82 ± 0.26 (348.15 K); 3.72 ± 0.25 (358.15 K).

With `CCCCCCCCCC` [decane] + CCCCCC[N+]1(C)CCCCC1.O=S(=O)([N-]S(=O)(=O)C(F)(F)F)C(F)(F)F, the activity coefficient (308.15 K) was 23.5 ± 1.6; the activity coefficient (318.15 K) was determined as 22.2 ± 1.5; the activity coefficient (328.15 K) was found to be 21.1 ± 1.4; the activity coefficient (338.15 K) came to 20 ± 1.4; the activity coefficient (348.15 K) stood at 19.1 ± 1.3; the activity coefficient (358.15 K) was 18.3 ± 1.3.

As for `CCCCCCCCCC` [decane] + CCCCC[N+]1(C)CCCCC1.O=S(=O)([N-]S(=O)(=O)C(F)(F)F)C(F)(F)F, the activity coefficient by setting is: (308.15 K) 31.9 ± 2.2; (318.15 K) 29.5 ± 2; (328.15 K) 27.9 ± 1.9; (338.15 K) 26.2 ± 1.8; (348.15 K) 25.1 ± 1.7; (358.15 K) 23.8 ± 1.6.

As to `CCCOCCC` [dipropyl ether] + CCCCCC[N+]1(C)CCCCC1.O=S(=O)([N-]S(=O)(=O)C(F)(F)F)C(F)(F)F, the activity coefficient (308.15 K) worked out at 3.5 ± 0.24; the activity coefficient (318.15 K) turned out to be 3.47 ± 0.24; the activity coefficient (328.15 K) worked out at 3.44 ± 0.23; the activity coefficient (338.15 K) stood at 3.41 ± 0.23; the activity coefficient (348.15 K) stood at 3.38 ± 0.23; the activity coefficient (358.15 K) turned out to be 3.37 ± 0.23.

With `CCCOCCC` [dipropyl ether] + CCCCC[N+]1(C)CCCCC1.O=S(=O)([N-]S(=O)(=O)C(F)(F)F)C(F)(F)F, the activity coefficient runs as follows: (308.15 K) 4.17 ± 0.28; (318.15 K) 4.13 ± 0.28; (328.15 K) 4.05 ± 0.28; (338.15 K) 4.02 ± 0.27; (348.15 K) 3.98 ± 0.27; (358.15 K) 3.96 ± 0.27.

Regarding `CCO` [ethanol] + CCCCCC[N+]1(C)CCCCC1.O=S(=O)([N-]S(=O)(=O)C(F)(F)F)C(F)(F)F, the activity coefficient worked out at 1.81 ± 0.12 (308.15 K); 1.63 ± 0.11 (318.15 K); 1.49 ± 0.1 (328.15 K); 1.37 ± 0.09 (338.15 K); 1.27 ± 0.08 (348.15 K); 1.18 ± 0.08 (358.15 K).

With `CCO` [ethanol] + CCCCC[N+]1(C)CCCCC1.O=S(=O)([N-]S(=O)(=O)C(F)(F)F)C(F)(F)F, the activity coefficient is, setting by setting: (308.15 K) 1.79 ± 0.12; (318.15 K) 1.58 ± 0.1; (328.15 K) 1.46 ± 0.1; (338.15 K) 1.35 ± 0.09; (348.15 K) 1.27 ± 0.08; (358.15 K) 1.18 ± 0.08.

For `CCc1ccccc1` [ethylbenzene] + CCCCCC[N+]1(C)CCCCC1.O=S(=O)([N-]S(=O)(=O)C(F)(F)F)C(F)(F)F, the activity coefficient (308.15 K) is 0.864 ± 0.055; the activity coefficient (318.15 K) was 0.894 ± 0.057; the activity coefficient (328.15 K) was determined as 0.909 ± 0.058; the activity coefficient (338.15 K) amounted to 0.934 ± 0.059; the activity coefficient (348.15 K) came out at 0.957 ± 0.06; the activity coefficient (358.15 K) turned out to be 0.969 ± 0.061.

As to `CCc1ccccc1` [ethylbenzene] + CCCCC[N+]1(C)CCCCC1.O=S(=O)([N-]S(=O)(=O)C(F)(F)F)C(F)(F)F, the activity coefficient is, setting by setting: (308.15 K) 1.26 ± 0.08; (318.15 K) 1.31 ± 0.09; (328.15 K) 1.35 ± 0.09; (338.15 K) 1.37 ± 0.09; (348.15 K) 1.42 ± 0.09; (358.15 K) 1.43 ± 0.09.

Turning to `CCCCCCC` [heptane] + CCCCCC[N+]1(C)CCCCC1.O=S(=O)([N-]S(=O)(=O)C(F)(F)F)C(F)(F)F, the activity coefficient runs as follows: (308.15 K) 10.2 ± 0.7; (318.15 K) 9.81 ± 0.67; (328.15 K) 9.38 ± 0.64; (338.15 K) 8.99 ± 0.61; (348.15 K) 8.68 ± 0.59; (358.15 K) 8.2 ± 0.56.

Take `CCCCCCC` [heptane] + CCCCC[N+]1(C)CCCCC1.O=S(=O)([N-]S(=O)(=O)C(F)(F)F)C(F)(F)F: the activity coefficient was 13.6 ± 0.9 (308.15 K); 12.4 ± 0.8 (318.15 K); 11.8 ± 0.8 (328.15 K); 11.3 ± 0.8 (338.15 K); 10.8 ± 0.7 (348.15 K); 10.4 ± 0.7 (358.15 K).

As to `C=CCCCC` [hex-1-ene] + CCCCCC[N+]1(C)CCCCC1.O=S(=O)([N-]S(=O)(=O)C(F)(F)F)C(F)(F)F, the activity coefficient runs as follows: (308.15 K) 4.53 ± 0.31; (318.15 K) 4.45 ± 0.3; (328.15 K) 4.34 ± 0.3; (338.15 K) 4.28 ± 0.29; (348.15 K) 4.15 ± 0.28; (358.15 K) 4.06 ± 0.28.
